According to patent publication US20020137929A1, “1 - (3-heterocyclylphenyl) isothiourea, -isourea, -guanidine and -amidine herbicidal agents” (Intellectual Property Department, BASF Aktiengesellschaft, priority 1998, published 2002):

Key:
[1] = system: IPOHE (Morningglory, Ivyleaf); experiment: Preemergence herbicidal evaluation; assay type: in vivo, Ipomoea hederacea; conditions: rated 4-5 weeks after treatment
Method in brief: (§1)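 Scores use a 0–9 visual scale covering stand, vigor, malformation, size and chlorosis relative to controls, rated four to five weeks after treatment. Before emergence, soil-planted seeds were sprayed with compound in aqueous acetone at roughly 0.0156–0.500 kg/ha and held in the greenhouse.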

[2] = system: CYPIR (Rice Flatsedge); experiment: Postemergence weed control under flooded paddy conditions; assay type: in vivo, Cyperus iria; conditions: postemergence weeds, 3-4 weeks after treatment
Method in brief: (§2)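 Flood-water application, about 0.0313–0.500 kg/ha a.i. in aqueous/acetone 50/50 v/v; water depth 1.5–3 cm throughout. Weeds 3–5 cm, rice 1.5–2.5 leaf. Greenhouse; 0–9 visual rating vs control at 3–4 wk.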

[3] = system: ECHCG (Barnyardgrass); experiment: Preemergence herbicidal evaluation; assay type: in vivo, Echinochloa crus-galli; conditions: rated 4-5 weeks after treatment
Method in brief: as §1

[4] = system: ECHORC (Watergrass (Calif.)); experiment: Postemergence weed control under flooded paddy conditions; assay type: in vivo, Echinochloa oryzoides; conditions: postemergence weeds, 3-4 weeks after treatment
Method in brief: as §2

[5] = system: ZEAMX (Corn, Field); experiment: Postemergence herbicidal evaluation; assay type: in vivo, Zea mays; conditions: postemergence
Method in brief: (§3)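 Visual 0-9 injury score (stand, vigor, malformation, size, chlorosis, appearance vs untreated) taken four to five weeks post-spray, averaged across repeat tests. Test plants about two weeks old; foliar spray of acetone/water (1:1) with 0.5% surfactant delivering ~0.0156-0.500 kg active/ha.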

[6] = system: SETVI (Foxtail, Green); experiment: Postemergence herbicidal evaluation; assay type: in vivo, Setaria viridis; conditions: postemergence
Method in brief: as §3

[7] = system: CASOB (Sicklepod); experiment: Preemergence herbicidal evaluation; assay type: in vivo, Cassia obtusifolia; conditions: rated 4-5 weeks after treatment
Method in brief: as §1

[8] = system: ECHORC (Watergrass (Calif.)); experiment: Preemergence weed control under flooded paddy conditions; assay type: in vivo, Echinochloa oryzoides; conditions: rated 3-4 weeks after treatment
Method in brief: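 First, seeds or propagules go into the top 0.5 cm of silt loam; next, water is held 1.5 to 3 cm over the soil; then compound (50/50 acetone/water) is pipetted into it at about 0.0313 to 0.500 kg/ha; finally plants are rated visually 0-9 after three to four weeks.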

[9] = system: ABUTH (Velvetleaf); experiment: Postemergence herbicidal evaluation; assay type: in vivo, Abutilon theophrasti; conditions: postemergence
Method in brief: as §3

[10] = system: IPOHE (Morningglory, Ivyleaf); experiment: Postemergence herbicidal evaluation; assay type: in vivo, Ipomoea hederacea; conditions: postemergence
Method in brief: as §3

[11] = system: CYPSE (Flatsedge); experiment: Preemergence weed control under flooded paddy conditions; assay type: in vivo, Cyperus serotinus; conditions: rated 3-4 weeks after treatment
Method in brief: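 Ratings on a 0-9 visual scale cover stand, vigor, malformation, size, chlorosis and overall appearance relative to a control, taken three to four weeks post-treatment. Application was into flood water over freshly sown silt loam at roughly 0.0313 to 0.500 kg/ha.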

[12] = system: AMBEL (Ragweed, Common); experiment: Preemergence herbicidal evaluation; assay type: in vivo, Ambrosia artemisifolia; conditions: rated 4-5 weeks after treatment
Method in brief: as §1

[13] = system: ABUTH (Velvetleaf); experiment: Preemergence herbicidal evaluation; assay type: in vivo, Abutilon theophrasti; conditions: rated 4-5 weeks after treatment
Method in brief: as §1

[14] = system: GLXMAW (Soybean, Williams); experiment: Postemergence herbicidal evaluation; assay type: in vivo, Glycine max, (L.) Merr. cv Williams; conditions: postemergence
Method in brief: as §3

For `CCOC(=O)/C=C1/S/C(=N/c2cc(-n3c(=O)cc(C(F)(F)F)n(C)c3=O)c(F)cc2Cl)N(CC(=O)OCC)C1=O` [Compound 14], the “IPOHE preemergence herbicidal rating” value ([1]; rate 0.0313 kg/ha) was 0.0, the “IPOHE preemergence herbicidal rating” value ([1]; rate 0.0625 kg/ha) was 1.5 and the “IPOHE preemergence herbicidal rating” value ([1]; rate 0.1250 kg/ha) was 7.5. For the same molecule, the “IPOHE preemergence herbicidal rating” value ([1]; rate 0.2500 kg/ha) was 9.0, the “IPOHE preemergence herbicidal rating” value ([1]; rate 0.5000 kg/ha) was 9.0 and the “Herbicidal rating CYPIR” value ([2]; rate 0.0313 kg/ha) was 4.0. For the same molecule, the “Herbicidal rating CYPIR” value ([2]; rate 0.0625 kg/ha) was 5.8, the “Herbicidal rating CYPIR” value ([2]; rate 0.1250 kg/ha) was 6.8 and the “Herbicidal rating CYPIR” value ([2]; rate 0.2500 kg/ha) was 4.5. The “ECHCG preemergence herbicidal rating” value ([3]; rate 0.0313 kg/ha) was 0.0, the “ECHCG preemergence herbicidal rating” value ([3]; rate 0.0625 kg/ha) was 0.0 and the “ECHCG preemergence herbicidal rating” value ([3]; rate 0.1250 kg/ha) was 1.0. For the same molecule, the “ECHCG preemergence herbicidal rating” value ([3]; rate 0.2500 kg/ha) was 3.0, the “ECHCG preemergence herbicidal rating” value ([3]; rate 0.5000 kg/ha) was 6.0 and the “Herbicidal rating ECHORC” value ([4]; rate 0.0313 kg/ha) was 0.8. The “Herbicidal rating ECHORC” value ([4]; rate 0.0625 kg/ha) was 2.3, the “Herbicidal rating ECHORC” value ([4]; rate 0.1250 kg/ha) was 3.8 and the “Herbicidal rating ECHORC” value ([4]; rate 0.2500 kg/ha) was 7.0. It also gave a ZEAMX herbicidal rating ([5]; rate 0.0156 kg/ha) of 7.0, a ZEAMX herbicidal rating ([5]; rate 0.0313 kg/ha) of 7.0 and a ZEAMX herbicidal rating ([5]; rate 0.0625 kg/ha) of 7.5. For the same molecule, the ZEAMX herbicidal rating ([5]; rate 0.1250 kg/ha) was 7.5, the SETVI herbicidal rating ([6]; rate 0.0156 kg/ha) was 7.0 and the SETVI herbicidal rating ([6]; rate 0.0313 kg/ha) was 8.0. The SETVI herbicidal rating ([6]; rate 0.0625 kg/ha) was 9.0, the SETVI herbicidal rating ([6]; rate 0.1250 kg/ha) was 9.0 and the “CASOB preemergence herbicidal rating” value ([7]; rate 0.0313 kg/ha) was 0.0. The “CASOB preemergence herbicidal rating” value ([7]; rate 0.0625 kg/ha) was 1.0, the “CASOB preemergence herbicidal rating” value ([7]; rate 0.1250 kg/ha) was 1.5 and the “CASOB preemergence herbicidal rating” value ([7]; rate 0.2500 kg/ha) was 2.0. The “CASOB preemergence herbicidal rating” value ([7]; rate 0.5000 kg/ha) was 5.0, the “Herbicidal rating ECHORC” value ([8]; 0.0313 kg/ha) was 1.5 and the “Herbicidal rating ECHORC” value ([8]; 0.0625 kg/ha) was 4.5. For the same molecule, the “Herbicidal rating ECHORC” value ([8]; 0.1250 kg/ha) was 7.5, the “Herbicidal rating ECHORC” value ([8]; 0.2500 kg/ha) was 9.0 and the ABUTH herbicidal rating ([9]; rate 0.0156 kg/ha) was 9.0. It also gave an ABUTH herbicidal rating ([9]; rate 0.0313 kg/ha) of 9.0, an ABUTH herbicidal rating ([9]; rate 0.0625 kg/ha) of 9.0 and an ABUTH herbicidal rating ([9]; rate 0.1250 kg/ha) of 9.0. It also gave an IPOHE herbicidal rating ([10]; rate 0.0156 kg/ha) of 9.0, an IPOHE herbicidal rating ([10]; rate 0.0313 kg/ha) of 9.0 and an IPOHE herbicidal rating ([10]; rate 0.0625 kg/ha) of 9.0. For the same molecule, the IPOHE herbicidal rating ([10]; rate 0.1250 kg/ha) was 9.0, the “Herbicidal rating CYPSE” value ([11]; 0.0313 kg/ha) was 0.0 and the “Herbicidal rating CYPSE” value ([11]; 0.0625 kg/ha) was 0.0. The “Herbicidal rating CYPSE” value ([11]; 0.1250 kg/ha) was 3.0, the “Herbicidal rating CYPSE” value ([11]; 0.2500 kg/ha) was 0.0 and the “AMBEL preemergence herbicidal rating” value ([12]; rate 0.0313 kg/ha) was 0.0. For the same molecule, the “AMBEL preemergence herbicidal rating” value ([12]; rate 0.0625 kg/ha) was 1.0, the “AMBEL preemergence herbicidal rating” value ([12]; rate 0.1250 kg/ha) was 6.5 and the “AMBEL preemergence herbicidal rating” value ([12]; rate 0.2500 kg/ha) was 9.0. For the same molecule, the “AMBEL preemergence herbicidal rating” value ([12]; rate 0.5000 kg/ha) was 9.0, the “ABUTH preemergence herbicidal rating” value ([13]; rate 0.0313 kg/ha) was 1.0 and the “ABUTH preemergence herbicidal rating” value ([13]; rate 0.0625 kg/ha) was 2.0. The “ABUTH preemergence herbicidal rating” value ([13]; rate 0.1250 kg/ha) was 9.0, the “ABUTH preemergence herbicidal rating” value ([13]; rate 0.2500 kg/ha) was 9.0 and the “ABUTH preemergence herbicidal rating” value ([13]; rate 0.5000 kg/ha) was 9.0. For the same molecule, the GLXMAW herbicidal rating ([14]; rate 0.0156 kg/ha) was 6.0, the GLXMAW herbicidal rating ([14]; rate 0.0313 kg/ha) was 8.0 and the GLXMAW herbicidal rating ([14]; rate 0.0625 kg/ha) was 9.0. The GLXMAW herbicidal rating ([14]; rate 0.1250 kg/ha) was 8.5.
